Consider 21 compounds from patent publication US8816085B2 (Takeda GmbH, priority 2009, dated 2014).

For the assay, the target named is T1, PDE5A1 (human PDE5 from platelets) (Homo sapiens, UniProt O76074).
T1 construct: from tissue; host or cells: platelets from fresh blood of human donors (10,000 g supernatant of sonified platelets)
Put plainly: Inhibition of type 5 phosphodiesterase (PDE5) activity, modified SPA test. The assay is classed as biochemical. The settings on record: PDE5-containing human platelet lysate, 0.5 μM cGMP, value classes, read-out: PDE5A1 inhibitory values [measured as −logIC50 (mol/l)] (converted). Here is the method: Method for Measuring Inhibition of the Type 5 Phosphodiesterase (PDE5) Activity:
As a source for human PDE5, platelets are used. For that purpose, 150 ml fresh blood from human donors anticoagulated with citrate [final concentration 0.3% (w/v)] is centrifuged at 200 g for 10 min to obtain the so-called platelet-rich-plasma (PRP) as a supernatant. 1/10 volume of ACD solution (85 mM Na3-citrate, 111 mM D-glucose, 71 mM citric acid, pH 4.4) is added to 9/10 volume of PRP. After centrifugation (1,400 g, 10 min) the cell pellet is resuspended in 3 ml homogenization buffer (NaCl 140 mM, KCl 3.8 mM, EGTA (ethylene glycol tetraacetic acid) 1 mM, MgCl2 1 mM, Tris-HCl 20 mM, beta-mercaptoethanol 1 mM, pH 8.2) plus protease-inhibitor mix giving rise to the final concentrations of 0.5 mM Pefablock (Roche), 10 μM Leupeptin, 5 μM Trypsininhibitor, 2 mM Benzamidin and 10 μM Pepstatin A. The suspension is sonified and thereafter centrifuged for 15 min at 10,000 g. The resulting supernatant (platelet lysate) is used for enzymatic testings.
PDE5A1 activity is inhibited by the compounds of the present subject matter in a modified SPA (scintillation proximity assay) test, supplied by Amersham Biosciences (see procedural instructions “phosphodiesterase [3H]cAMP SPA enzyme assay, code TRKQ 7090”), carried out in 96-well microtitre plates (MTP's). The test volume is 100 μl and contains 20 mM Tris buffer (pH 7.4), 0.1 mg of BSA (bovine serum albumin)/ml, 5 mM Mg^2+, 1 μM motapizone, 10 nM PDE2 inhibitor 2-(3,4-dimethoxybenzyl)-7-[(1R,2R)-2-hydroxy-1-(2-phenylethyl)propyl]-5-methylimidazo[5,1-t][1,2,4]triazin-4(3H)-one, 0.5 μM cGMP (cyclic guanosine monophosphate) (including about 50,000 cpm of [3H]cGMP as a tracer), 1 μl of the respective compound dilution in dimethylsulfoxide (DMSO) and sufficient PDE5-containing platelet lysat (10,000×g supernatant, see above) to ensure that 10-20 wt % of the cGMP is converted under the said experimental conditions. […] After a preincubation of 5 min at 37° C., the reaction is started by adding the substrate (cGMP) and the assay is incubated for a further 15 min; after that, it is stopped by adding SPA beads (50 μl). In accordance with the manufacturer's instructions, the SPA beads had previously been resuspended in water, but are then diluted 1:3 (v/v) in water; the diluted solution also contains 3 mM 8-methoxymethyl-3-isobutyl-1-methylxanthine (IBMX) to ensure a complete PDE activity stop. After the beads have been sedimented (>30 min), the MTP's are analyzed in commercially available luminescence detection devices. The corresponding IC50 values of the compounds for the inhibition of PDE activity are determined from the concentration-effect curves by means of non-linear regression.
With `COCC(=O)N[C@H]1CC[C@@H](NC(=O)c2c(C)[nH]c3c(-c4cc(OC)c(F)cc4OCC4CC4)ccnc23)CC1` [Example E69, 7-[2-(Cyclopropylmethoxy)-4-fluoro-5-methoxyphenyl]-N-{cis-4-[(methoxyacetyl)amino]cyclohexyl}-2-methyl-1H-pyrrolo[3,2-b]pyridine-3-carboxamide], the IC50 was under 1 nM.
On to `COc1cc(-c2ccnc3c(C(=O)N[C@@H]4CCN(C(C)=O)C[C@H]4O)c(C)[nH]c23)c(OCC2CC2)cc1F` (relative stereo) [Example E73, N-[(3R*,4R*)-1-Acetyl-3-hydroxypiperidin-4-yl]-7-[2-(cyclopropylmethoxy)-4-fluoro-5-methoxyphenyl]-2-methyl-1H-pyrrolo[3,2-b]pyridine-3-carboxamide], for which the IC50 is under 1 nM.
As for `CCC(=O)N[C@H]1CC[C@H](NC(=O)c2c(C)[nH]c3c(-c4cc(F)c(OC)cc4OCC4CC4)ccnc23)CC1` [Example E80, 7-[2-(Cyclopropylmethoxy)-5-fluoro-4-methoxyphenyl]-2-methyl-N-[trans-4-(propionylamino)cyclohexyl]-1H-pyrrolo[3,2-b]pyridine-3-carboxamide], the IC50 was under 1 nM.
With `CCC(=O)N1CCC(NC(=O)c2c(C)[nH]c3c(-c4cc(OC)c(F)cc4OCC4CC4)ccnc23)CC1` [Example E62, 7-[2-(Cyclopropylmethoxy)-4-fluoro-5-methoxyphenyl]-2-methyl-N-(1-propanoylpiperidin-4-yl)-1H-pyrrolo[3,2-b]pyridine-3-carboxamide], the IC50 was under 1 nM.
For the compound `COCC(=O)N[C@H]1CC[C@@H](NC(=O)c2c(C)[nH]c3c(-c4c(OCC5CC5)ccc5c4OCO5)ccnc23)CC1` [Example E08, 7-[5-(Cyclopropylmethoxy)-1,3-benzodioxol-4-yl]-N-{cis-4-[(methoxyacetyl)amino]cyclohexyl}-2-methyl-1H-pyrrolo[3,2-b]pyridine-3-carboxamide], the IC50 was under 1 nM.
As to `COc1cc(OCC2CC2)c(-c2ccnc3c(C(=O)NC4CCN(C(=O)[C@H](C)O)CC4)c(C)[nH]c23)cc1F` [Example F51, 7-[2-(Cyclopropylmethoxy)-5-fluoro-4-methoxyphenyl]-N-{1-[(2S)-2-hydroxypropanoyl]piperidin-4-yl}-2-methyl-1H-pyrrolo[3,2-b]pyridine-3-carboxamide], the IC50 was under 1 nM.
For `CC(=O)N[C@H]1CC[C@@H](NC(=O)c2c(C)[nH]c3c(-c4ccc(F)cc4OCC4CC4)ccnc23)CC1` [Example E16, N-[cis-4-(Acetylamino)cyclohexyl]-7-[2-(cyclopropylmethoxy)-4-fluorophenyl]-2-methyl-1H-pyrrolo[3,2-b]pyridine-3-carboxamide], the IC50 was 1 to 10 nM.
Take `COc1ccc(OCC2CC2)c(-c2ccnc3c(C(=O)N[C@H]4CC[C@H](NC(=O)[C@H](C)O)CC4)c(C)[nH]c23)c1` [Example F29, 7-[2-(Cyclopropylmethoxy)-5-methoxyphenyl]-N-(trans-4-{[abs.(2S)-2-hydroxypropanoyl]amino}cyclohexyl)-2-methyl-1H-pyrrolo[3,2-b]pyridine-3-carboxamide]: the IC50 is under 1 nM.
Take `CCC(=O)N[C@H]1CC[C@@H](NC(=O)c2c(C)[nH]c3c(-c4ccc(OC)cc4OCC4CC4)ccnc23)CC1` [Example E38, 7-[2-(Cyclopropylmethoxy)-4-methoxyphenyl]-2-methyl-N-[cis-4-(propanoylamino)cyclohexyl]-1H-pyrrolo[3,2-b]pyridine-3-carboxamide]: the IC50 was under 1 nM.
For the compound `COc1cc(-c2ccnc3c(C(=O)N[C@@H]4CCN(C(=O)CO)C[C@H]4O)c(C)[nH]c23)c(OCC2CC2)cc1F` (relative stereo) [Example F48, 7-[2-(Cyclopropylmethoxy)-4-fluoro-5-methoxyphenyl]-N-[(3R*,4R*)-3-hydroxy-1-(hydroxyacetyl)piperidin-4-yl]-2-methyl-1H-pyrrolo[3,2-b]pyridine-3-carboxamide], the IC50 was under 1 nM.
For the compound `CCC(=O)N[C@H]1CC[C@@H](NC(=O)c2c(C)[nH]c3c(-c4cc(C)ccc4OCC4CC4)ccnc23)CC1` [Example E59, 7-[2-(Cyclopropylmethoxy)-5-methylphenyl]-2-methyl-N-[cis-4-(propanoylamino)cyclohexyl]-1H-pyrrolo[3,2-b]pyridine-3-carboxamide], the IC50 was 1 to 10 nM.
Consider `CC(=O)N[C@H]1CC[C@@H](NC(=O)c2c(C)[nH]c3c(-c4cc(F)ccc4OCC4CC4)ccnc23)CC1` [Example E25, N-[cis-4-(Acetylamino)cyclohexyl]-7-[2-(cyclopropylmethoxy)-5-fluorophenyl]-2-methyl-1H-pyrrolo[3,2-b]pyridine-3-carboxamide], for which the IC50 was 1 to 10 nM.
As to `Cc1[nH]c2c(-c3ccc(F)cc3OCC3CC3)ccnc2c1C(=O)NC1CCN(C(=O)[C@H](C)O)CC1` [Example F07, 7-[2-(Cyclopropylmethoxy)-4-fluorophenyl]-N-{1-[(2S)-2-hydroxypropanoyl]piperidin-4-yl}-2-methyl-1H-pyrrolo[3,2-b]pyridine-3-carboxamide], the IC50 is 1 to 10 nM.
With `COCC(=O)N1CCC(NC(=O)c2c(C)[nH]c3c(-c4cc(F)c(OC)cc4OCC4CC4)ccnc23)CC1` [Example E78, 7-[2-(Cyclopropylmethoxy)-5-fluoro-4-methoxyphenyl]-N-[1-(methoxyacetyl)piperidin-4-yl]-2-methyl-1H-pyrrolo[3,2-b]pyridine-3-carboxamide], the IC50 is under 1 nM.
For the compound `COCC(=O)N[C@H]1CC[C@@H](NC(=O)c2c(C)[nH]c3c(-c4cc(F)c(OC)cc4OCC4CC4)ccnc23)CC1` [Example E84, 7-[2-(Cyclopropylmethoxy)-5-fluoro-4-methoxyphenyl]-N-{cis-4-[(methoxyacetyl)amino]cyclohexyl}-2-methyl-1H-pyrrolo[3,2-b]pyridine-3-carboxamide], the IC50 was under 1 nM.
Consider `CC(=O)N[C@H]1CC[C@H](NC(=O)c2c(C)[nH]c3c(-c4cc(F)ccc4OCC4CC4)ccnc23)CC1` [Example E22, N-[trans-4-(Acetylamino)cyclohexyl]-7-[2-(cyclopropylmethoxy)-5-fluorophenyl]-2-methyl-1H-pyrrolo[3,2-b]pyridine-3-carboxamide], for which the IC50 is under 1 nM.
In the case of `COCC(=O)N[C@H]1CC[C@H](NC(=O)c2c(C)[nH]c3c(-c4cc(OC)ccc4OCC4CC4)ccnc23)CC1` [Example E45, 7-[2-(Cyclopropylmethoxy)-5-methoxyphenyl]-N-{trans-4-[(methoxyacetyl)amino]cyclohexyl}-2-methyl-1H-pyrrolo[3,2-b]pyridine-3-carboxamide], the IC50 is under 1 nM.
Take `COCC(=O)N[C@H]1CC[C@@H](NC(=O)c2c(C)[nH]c3c(-c4cc(F)ccc4OCC4CC4)ccnc23)CC1` [Example E27, 7-[2-(Cyclopropylmethoxy)-5-fluorophenyl]-N-{cis-4-[(methoxyacetyl)amino]cyclohexyl}-2-methyl-1H-pyrrolo[3,2-b]pyridine-3-carboxamide]: the IC50 was 1 to 10 nM.
As to `CCC(=O)N[C@H]1CC[C@H](NC(=O)c2c(C)[nH]c3c(-c4cc(OC)c(F)cc4OCC4CC4)ccnc23)CC1` [Example E65, 7-[2-(Cyclopropylmethoxy)-4-fluoro-5-methoxyphenyl]-2-methyl-N-[trans-4-(propanoylamino)cyclohexyl]-1H-pyrrolo[3,2-b]pyridine-3-carboxamide], the IC50 was under 1 nM.
With `COc1cc(-c2ccnc3c(C(=O)N[C@H]4CC[C@H](NC(=O)[C@H](C)O)CC4)c(C)[nH]c23)c(OCC2CC2)cc1F` [Example F43, 7-[2-(Cyclopropylmethoxy)-4-fluoro-5-methoxyphenyl]-N-(trans-4-{[(2S)-2-hydroxypropanoyl]amino}cyclohexyl)-2-methyl-1H-pyrrolo[3,2-b]pyridine-3-carboxamide], the IC50 is under 1 nM.
The figure for `Cc1[nH]c2c(-c3cc(F)ccc3OCC3CC3)ccnc2c1C(=O)N[C@H]1CC[C@H](NC(=O)[C@H](C)O)CC1` [Example F15, 7-[2-(Cyclopropylmethoxy)-5-fluorophenyl]-N-(trans-4-{[(2S)-2-hydroxypropanoyl]amino}cyclohexyl)-2-methyl-1H-pyrrolo[3,2-b]pyridine-3-carboxamide] is under 1 nM.
